Patent US20140271926A1, “METHODS OF USE OF GLUTAMINE SYNTHETASE INHIBITORS” (CALIFORNIA INSTITUTE OF TECHNOLOGY, priority 2013, published 2014)

How the values were obtained:
FlagCRBN [1] = molecular target: T1, FlagCRBN (Homo sapiens, UniProt Q96SW2); experiment: FlagCRBN immunoprecipitation from stable HEK293T cells, immunoblot for CRL4CRBN subunits and GS; type: cell-based; details: FIG. 2
T1 construct: expressed in transfected cells
Protocol: To confirm the results of the quantitative mass spectrometry, ^FlagCRBN was immunoprecipitated from the stable HEK293T cell line and immunoblotted for CRL4^CRBN subunits and GS. As expected, thalidomide enhanced recovery of GS but had no effect on binding of DDB1 or CUL4A (FIG. 2). In order to confirm this finding, endogenous proteins expressed in cells were analyzed that are responsive to the therapeutic effects of IMiDs. For this purpose, endogenous CRBN as immunoprecipitated from MM.1S multiple myeloma cells.
Immunoprecipitation. Cells were lysed in immunoprecipitation buffer (10 mM Tris [pH 7.5], 150 mM NaCl, 1% Triton X-100) containing a protease inhibitor cocktail, and immunoprecipitated with the indicated antibodies, such as anti-CRBN antibody for 2-4 hours at 4° C., followed by incubation with protein G sepharose 4 Fast Flow (GE Healthcare) for 1 hour at 4° C. Immunoprecipitated proteins were resolved by SDS/PAGE and analyzed by immunoblotting with the indicated antibodies.

FlagCRBN [2] = molecular target: T1, FlagCRBN; experiment: SILAC quantitative mass spectrometry of FlagCRBN immunoprecipitates, thalidomide vs DMSO; type: cell-based; details: 50 μM thalidomide 4 hours vs DMSO
Protocol: To identify IMiD-modulated substrates of CRBN, a human embryonic kidney (HEK) 293T cell line was generated that stably expresses CRBN with a Flag tag appended to its amino terminus (^FlagCRBN). ^FlagCRBN cells were grown in medium formulated with isotopically light lysine and arginine (light medium) or in medium formulated with isotopically heavy lysine and arginine (heavy medium). Cells growing in heavy medium were treated with 50 μM thalidomide for 4 hours, whereas cells growing in light medium were treated with DMSO. ^FlagCRBN immunoprecipitates were prepared in parallel, mixed, and analyzed by quantitative mass spectrometry. […] Essentially identical results were obtained in a label swap experiment. […] (Lopez-Girona et al., 2012, supra and Zhu et al. 2011 supra.)
Preparation of ^FlagCRBN for mass spectrometry (MS). SILAC-labeled cultures of the stable cell lines were grown as described Lee et al., 2011, Molecular & Cellular Proteomics, 10: M110 006460,the entire contents of which are herein incorporated by reference. Briefly, HEK293T cells, stably expressing ^FlagCRBN, were cultured in medium formulated with isotopically light lysine and arginine (‘light’ medium) or in medium formulated with isotopically heavy lysine and arginine (‘heavy’ medium). The cells growing in ‘heavy’ medium were treated with thalidomide (a final concentration of 50 μM) for 4 hours, while the cells growing in ‘light’ medium were treated with DMSO. SILAC experiments were repeated after swapping the SILAC labels in which the cells cultured in ‘light’ and ‘heavy’ medium were treated with thalidomide and DMSO, respectively. The ^FlagCRBN immunoprecipitates were prepared, mixed, and analyzed by quantitative mass spectrometry.
MS data analysis. Thermo raw files were processed and searched with MaxQuant (v. 1.4.1.2), as described in Cox et al., 2008, Nat. Biotechnol. 26:1367; and Cox et al., 2011, J. of Proteome Research, 10:1794, the entire contents of both of which are herein incorporated by reference. Trypsin was specified as the digestion enzyme with up to two missed cleavages. Protein N-terminal acetylation (+42.0106) and methionine oxidation (+15.9949) were specified as variable modifications. Carbamidomethylation of cysteine (+57.0215) was specified as a fixed modification. Arg6 ([…]) and Lys8 (+8.0142) were specified as the SILAC labels. Requantification and match between runs were enabled. Precursor ion tolerance was 7 ppm and fragment ion tolerance was 0.5 Da. All human Uniprot entries were searched (148298 sequences, downloaded on 05Dec12) along with a contaminant database containing proteins such as keratin and trypsin (247 sequences). (Apweiler et al., 2013, Nucleic Acids Research, 41: D43, the entire contents of which are herein incorporated by reference.) Additionally, to determine the false discovery rate, a decoy database was constructed by reversing the target database. While no minimum score was specified, the protein and peptide level false discovery rates were fixed at 1% and we required that all proteins reported were identified in both biological replicates by at least two peptides.
Proteins were quantified by first calculating the median of all peptide ratios within each biological replicate and then calculating the mean of the two biological replicate ratios. Only peptides uniquely assignable to the protein group were used for quantification. […] Individual ratio measurement error was estimated using pooled variance and overall ratio standard error was calculated using bootstrap analysis. […] Q-values were calculated from the p-values using the Storey method for calculating false discovery rates as described in Storey et al., 2002, J. Roy Stat. Soc. B., 64:479, the entire contents of which is herein incorporated by reference. A q-value of 0.05 was used as a threshold for significance.

T1 sequence (Q96SW2 whole entry): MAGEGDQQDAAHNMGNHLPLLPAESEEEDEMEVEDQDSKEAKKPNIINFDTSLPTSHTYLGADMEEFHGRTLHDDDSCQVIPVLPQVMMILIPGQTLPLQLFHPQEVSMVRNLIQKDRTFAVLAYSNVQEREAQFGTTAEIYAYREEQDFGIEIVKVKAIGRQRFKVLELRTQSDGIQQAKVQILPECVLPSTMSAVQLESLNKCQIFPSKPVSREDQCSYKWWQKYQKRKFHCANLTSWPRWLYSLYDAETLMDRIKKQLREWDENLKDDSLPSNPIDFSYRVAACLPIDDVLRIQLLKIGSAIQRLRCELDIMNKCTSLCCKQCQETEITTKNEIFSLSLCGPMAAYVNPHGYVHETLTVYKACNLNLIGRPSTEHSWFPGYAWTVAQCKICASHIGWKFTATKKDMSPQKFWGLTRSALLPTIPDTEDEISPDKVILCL

## O=C1CCC(N2C(=O)c3ccccc3C2=O)C(=O)N1 (stereo not shown) [thalidomide, Thalidomide]
FlagCRBN [1]
  binding of DDB1 or CUL4A to FlagCRBN: no effect
  recovery of GS with FlagCRBN: enhanced
FlagCRBN [2]; FIG. 1
  recovery of FlagCRBN, subunits of CRL4 (CUL4, DDB1, RBX1) and subunits of CSN: recovered in equal amounts
  recovery of glutamine synthetase (GS) in FlagCRBN immunoprecipitates: recovered in greater amounts
FlagCRBN [2]; protein ATP5A1
  +/−Thalidomide Ratio: 0.7541
FlagCRBN [2]; protein ATP5B
  +/−Thalidomide Ratio: 0.6236
FlagCRBN [2]; protein BAG2
  +/−Thalidomide Ratio: 0.6303
FlagCRBN [2]; protein BOLA2
  +/−Thalidomide Ratio: 0.5989
FlagCRBN [2]; protein C11orf84
  +/−Thalidomide Ratio: 0.7032
FlagCRBN [2]; protein C12orf23
  +/−Thalidomide Ratio: 0.6718
FlagCRBN [2]; protein C22orf28
  +/−Thalidomide Ratio: 0.7109
FlagCRBN [2]; protein CCT5
  +/−Thalidomide Ratio: 0.8584
FlagCRBN [2]; protein CCT6A
  +/−Thalidomide Ratio: 0.8483
FlagCRBN [2]; protein CCT8
  +/−Thalidomide Ratio: 0.8368
FlagCRBN [2]; protein CLNS1A
  +/−Thalidomide Ratio: 0.627
FlagCRBN [2]; protein CMBL
  +/−Thalidomide Ratio: 0.7463
FlagCRBN [2]; protein COMT
  +/−Thalidomide Ratio: 0.5482
FlagCRBN [2]; protein DDX5, DKFZp686J01190
  +/−Thalidomide Ratio: 0.6321
FlagCRBN [2]; protein DKFZp686K23100, MATR3, DKFZp686K0542
  +/−Thalidomide Ratio: 0.526
FlagCRBN [2]; protein FUS
  +/−Thalidomide Ratio: 0.5807
FlagCRBN [2]; protein GLNS (glutamine synthetase)
  +/−Thalidomide Ratio: 2.508
FlagCRBN [2]; protein GLUD1, GLUD2
  +/−Thalidomide Ratio: 0.7935
FlagCRBN [2]; protein HNRNPA2B1
  +/−Thalidomide Ratio: 0.4533
FlagCRBN [2]; protein HNRNPAB
  +/−Thalidomide Ratio: 0.569
FlagCRBN [2]; protein HNRNPC, hCG_1641229, HNRPCL1, HNRNPCL1, LOC440563, LOC649330
  +/−Thalidomide Ratio: 0.4229
FlagCRBN [2]; protein HNRNPK, HNRPK
  +/−Thalidomide Ratio: 0.5905
FlagCRBN [2]; protein HNRNPL
  +/−Thalidomide Ratio: 0.44
FlagCRBN [2]; protein HNRNPM, ORF, HNRPM
  +/−Thalidomide Ratio: 0.6977
FlagCRBN [2]; protein HNRNPU, HNRPU
  +/−Thalidomide Ratio: 0.7137
FlagCRBN [2]; protein HSP90AA1
  +/−Thalidomide Ratio: 0.7454
FlagCRBN [2]; protein HSP90AB1
  +/−Thalidomide Ratio: 0.79
FlagCRBN [2]; protein IMPDH2
  +/−Thalidomide Ratio: 0.8138
FlagCRBN [2]; protein IVNS1ABP
  +/−Thalidomide Ratio: 0.6131
FlagCRBN [2]; protein KIF11
  +/−Thalidomide Ratio: 0.6737
FlagCRBN [2]; protein LUC7L2
  +/−Thalidomide Ratio: 0.7578
FlagCRBN [2]; protein PDIA6
  +/−Thalidomide Ratio: 0.8515
FlagCRBN [2]; protein PIH1D1
  +/−Thalidomide Ratio: 0.5153
FlagCRBN [2]; protein PRPS1
  +/−Thalidomide Ratio: 0.7264
FlagCRBN [2]; protein PRPS2
  +/−Thalidomide Ratio: 0.6445
FlagCRBN [2]; protein PUF60
  +/−Thalidomide Ratio: 0.5471
FlagCRBN [2]; protein RBM39, DKFZp781C0423, DKFZp686A11192, DKFZp781I1140, DKFZp686C17209
  +/−Thalidomide Ratio: 0.6182
FlagCRBN [2]; protein RBMX, RBMXL1
  +/−Thalidomide Ratio: 0.5004
FlagCRBN [2]; protein RIOK1
  +/−Thalidomide Ratio: 0.6187
FlagCRBN [2]; protein RPL26, KRBA2, RPL26L1
  +/−Thalidomide Ratio: 0.698
FlagCRBN [2]; protein RPL27
  +/−Thalidomide Ratio: 0.7987
FlagCRBN [2]; protein RPL35, LOC154880
  +/−Thalidomide Ratio: 0.6839
FlagCRBN [2]; protein RPS3A
  +/−Thalidomide Ratio: 0.7607
FlagCRBN [2]; protein RPS8
  +/−Thalidomide Ratio: 0.8186
FlagCRBN [2]; protein RPS25
  +/−Thalidomide Ratio: 0.7348
FlagCRBN [2]; protein RPSA, RPSAP58, LAMR1P15
  +/−Thalidomide Ratio: 0.8005
FlagCRBN [2]; protein RUVBL1
  +/−Thalidomide Ratio: 0.7099
FlagCRBN [2]; protein RUVBL2
  +/−Thalidomide Ratio: 0.6927
FlagCRBN [2]; protein SF3A3
  +/−Thalidomide Ratio: 0.5959
FlagCRBN [2]; protein SFRS11, SRSF11
  +/−Thalidomide Ratio: 0.573
FlagCRBN [2]; protein SNRPD1
  +/−Thalidomide Ratio: 0.6168
FlagCRBN [2]; protein SNRPD3
  +/−Thalidomide Ratio: 0.6583
FlagCRBN [2]; protein SNRPF
  +/−Thalidomide Ratio: 0.6071
FlagCRBN [2]; protein SNRPN, SNRPB
  +/−Thalidomide Ratio: 0.6605
FlagCRBN [2]; protein SPIN1
  +/−Thalidomide Ratio: 0.6689
FlagCRBN [2]; protein SRSF3, SFRS3
  +/−Thalidomide Ratio: 0.651
FlagCRBN [2]; protein STK38
  +/−Thalidomide Ratio: 0.7445
FlagCRBN [2]; protein TCP1
  +/−Thalidomide Ratio: 0.8927
FlagCRBN [2]; protein TRIM21
  +/−Thalidomide Ratio: 0.7125
FlagCRBN [2]; protein TXN
  +/−Thalidomide Ratio: 0.7037
FlagCRBN [2]; protein U2AF2
  +/−Thalidomide Ratio: 0.6123
FlagCRBN [2]; protein VCP, DKFZp434K0126
  +/−Thalidomide Ratio: 0.7702
FlagCRBN [2]; protein WDR77
  +/−Thalidomide Ratio: 0.5895
